Biological target: Aβ42 (Homo sapiens, UniProt P05067)
Assay: Th-T (thioflavin-T) assay of Aβ42 aggregation
Assay type: biochemical
Details: for Th-T assay plate reading, mean of three wells (Supplementary Fig. 47): source data, Ab alone and No Ab as controls

Sequence of Aβ42 (P05067 672-713): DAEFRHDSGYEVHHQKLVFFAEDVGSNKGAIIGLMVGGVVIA

- Th-T fluorescence, mean of three wells (Aβ42 aggregation time course, reading M117): 3.606
- Th-T fluorescence, mean of three wells (Aβ42 aggregation time course, reading M118): 3.615
- Th-T fluorescence, mean of three wells (Aβ42 aggregation time course, reading M119): 3.596
- Th-T fluorescence, mean of three wells (Aβ42 aggregation time course, reading M120): 3.613
- Th-T fluorescence, mean of three wells (Aβ42 aggregation time course, reading M121): 3.583
- Th-T fluorescence, mean of three wells (Aβ42 aggregation time course, reading M122): 3.577
- Th-T fluorescence, mean of three wells (Aβ42 aggregation time course, reading M123): 3.546
- Th-T fluorescence, mean of three wells (Aβ42 aggregation time course, reading M124): 3.572
- Th-T fluorescence, mean of three wells (Aβ42 aggregation time course, reading M125): 3.555
- Th-T fluorescence, mean of three wells (Aβ42 aggregation time course, reading M126): 3.529
- Th-T fluorescence, mean of three wells (Aβ42 aggregation time course, reading M127): 3.54
- Th-T fluorescence, mean of three wells (Aβ42 aggregation time course, reading M128): 3.504
- Th-T fluorescence, mean of three wells (Aβ42 aggregation time course, reading M129): 3.564
- Th-T fluorescence, mean of three wells (Aβ42 aggregation time course, reading M130): 3.54
- Th-T fluorescence, mean of three wells (Aβ42 aggregation time course, reading M131): 3.5322
- Th-T fluorescence, mean of three wells (Aβ42 aggregation time course, reading M132): 3.554
- Th-T fluorescence, mean of three wells (Aβ42 aggregation time course, reading M133): 3.505
- Th-T fluorescence, mean of three wells (Aβ42 aggregation time course, reading M134): 3.525
- Th-T fluorescence, mean of three wells (Aβ42 aggregation time course, reading M135): 3.538
- Th-T fluorescence, mean of three wells (Aβ42 aggregation time course, reading M136): 3.5303
- Th-T fluorescence, mean of three wells (Supplementary Fig. 47, reading M137): 3.5763
- Th-T fluorescence, mean of three wells (Supplementary Fig. 47, reading M138): 3.512
- Th-T fluorescence, mean of three wells (Supplementary Fig. 47, reading M139): 3.524
- Th-T fluorescence, mean of three wells (Supplementary Fig. 47, reading M140): 3.521
- Th-T fluorescence, mean of three wells (Supplementary Fig. 47, reading M141): 3.497
- Th-T fluorescence, mean of three wells (Supplementary Fig. 47, reading M142): 3.5241
- Th-T fluorescence, mean of three wells (Supplementary Fig. 47, reading M143): 3.477
- Th-T fluorescence, mean of three wells (Supplementary Fig. 47, reading M144): 3.474
- Th-T fluorescence, mean of three wells (Supplementary Fig. 47, reading M145): 3.514
- Th-T fluorescence, mean of three wells (Supplementary Fig. 47 source data, measurement M37 of time course): 3.725
- Th-T fluorescence, mean of three wells (Supplementary Fig. 47 source data, measurement M38 of time course): 3.672
- Th-T fluorescence, mean of three wells (Supplementary Fig. 47 source data, measurement M39 of time course): 3.686
- Th-T fluorescence, mean of three wells (Supplementary Fig. 47 source data, measurement M40 of time course): 3.696
- Th-T fluorescence, mean of three wells (Supplementary Fig. 47 source data, measurement M41 of time course): 3.723
- Th-T fluorescence, mean of three wells (Supplementary Fig. 47 source data, measurement M42 of time course): 3.705
- Th-T fluorescence, mean of three wells (Supplementary Fig. 47 source data, measurement M43 of time course): 3.698
- Th-T fluorescence, mean of three wells (Supplementary Fig. 47 source data, measurement M44 of time course): 3.759
- Th-T fluorescence, mean of three wells (Supplementary Fig. 47 source data, measurement M45 of time course): 3.771
- Th-T fluorescence, mean of three wells (Supplementary Fig. 47 source data, measurement M46 of time course): 3.76
- Th-T fluorescence, mean of three wells (Supplementary Fig. 47 source data, measurement M47 of time course): 3.73
- Th-T fluorescence, mean of three wells (Supplementary Fig. 47 source data, measurement M48 of time course): 3.764
- Th-T fluorescence, mean of three wells (Supplementary Fig. 47 source data, measurement M49 of time course): 3.767
- Th-T fluorescence, mean of three wells (Supplementary Fig. 47 source data, measurement M50 of time course): 3.788
- Th-T fluorescence, mean of three wells (Supplementary Fig. 47 source data, measurement M51 of time course): 3.755
- Th-T fluorescence, mean of three wells (Supplementary Fig. 47 source data, measurement M52 of time course): 3.752
- Th-T fluorescence, mean of three wells (Supplementary Fig. 47 source data, measurement M53 of time course): 3.724
- Th-T fluorescence, mean of three wells (Supplementary Fig. 47 source data, measurement M54 of time course): 3.756
- Th-T fluorescence, mean of three wells (Supplementary Fig. 47 source data, measurement M55 of time course): 3.771
- Th-T fluorescence, mean of three wells (Supplementary Fig. 47 source data, measurement M56 of time course): 3.762
- Th-T assay plate reading, mean of three wells (Supplementary Fig. 47) (measurement M1): 0.2149
- Th-T assay plate reading, mean of three wells (Supplementary Fig. 47) (measurement M2): 0.2276
- Th-T assay plate reading, mean of three wells (Supplementary Fig. 47) (measurement M3): 0.2865
- Th-T assay plate reading, mean of three wells (Supplementary Fig. 47) (measurement M4): 0.3444
- Th-T assay plate reading, mean of three wells (Supplementary Fig. 47) (measurement M5): 0.4109
- Th-T assay plate reading, mean of three wells (Supplementary Fig. 47) (measurement M6): 0.436
- Th-T assay plate reading, mean of three wells (Supplementary Fig. 47) (measurement M7): 0.4804
- Th-T assay plate reading, mean of three wells (Supplementary Fig. 47) (measurement M8): 0.5318
- Th-T assay plate reading, mean of three wells (Supplementary Fig. 47) (measurement M9): 0.5868
- Th-T assay plate reading, mean of three wells (Supplementary Fig. 47) (measurement M10): 0.6365
- Th-T assay plate reading, mean of three wells (Supplementary Fig. 47) (measurement M11): 0.7058
- Th-T assay plate reading, mean of three wells (Supplementary Fig. 47) (measurement M12): 0.8261
- Th-T assay plate reading, mean of three wells (Supplementary Fig. 47) (measurement M13): 1.145
- Th-T assay plate reading, mean of three wells (Supplementary Fig. 47) (measurement M14): 1.723
- Th-T assay plate reading, mean of three wells (Supplementary Fig. 47) (measurement M15): 2.352
- Th-T assay plate reading, mean of three wells (Supplementary Fig. 47) (measurement M16): 2.814
- Th-T fluorescence, mean of three wells (reading M17, Supplementary Fig. 47 source data): 3.101
- Th-T fluorescence, mean of three wells (reading M18, Supplementary Fig. 47 source data): 3.246
- Th-T fluorescence, mean of three wells (reading M19, Supplementary Fig. 47 source data): 3.285
- Th-T fluorescence, mean of three wells (reading M20, Supplementary Fig. 47 source data): 3.357
- Th-T fluorescence, mean of three wells (reading M21, Supplementary Fig. 47 source data): 3.385
- Th-T fluorescence, mean of three wells (reading M22, Supplementary Fig. 47 source data): 3.422
- Th-T fluorescence, mean of three wells (reading M23, Supplementary Fig. 47 source data): 3.453
- Th-T fluorescence, mean of three wells (reading M24, Supplementary Fig. 47 source data): 3.499
- Th-T fluorescence, mean of three wells (reading M25, Supplementary Fig. 47 source data): 3.518
- Th-T fluorescence, mean of three wells (reading M26, Supplementary Fig. 47 source data): 3.525
- Th-T fluorescence, mean of three wells (reading M27, Supplementary Fig. 47 source data): 3.564
- Th-T fluorescence, mean of three wells (reading M28, Supplementary Fig. 47 source data): 3.572
- Th-T fluorescence, mean of three wells (reading M29, Supplementary Fig. 47 source data): 3.591
- Th-T fluorescence, mean of three wells (reading M30, Supplementary Fig. 47 source data): 3.63
- Th-T fluorescence, mean of three wells (reading M31, Supplementary Fig. 47 source data): 3.6544
- Th-T fluorescence, mean of three wells (reading M32, Supplementary Fig. 47 source data): 3.711
- Th-T fluorescence, mean of three wells (reading M33, Supplementary Fig. 47 source data): 3.704
- Th-T fluorescence, mean of three wells (reading M34, Supplementary Fig. 47 source data): 3.671
- Th-T fluorescence, mean of three wells (reading M35, Supplementary Fig. 47 source data): 3.708
- Th-T fluorescence, mean of three wells (reading M36, Supplementary Fig. 47 source data): 3.706
- Th-T fluorescence, mean of three wells (time course, reading M57): 3.709
- Th-T fluorescence, mean of three wells (time course, reading M58): 3.763
- Th-T fluorescence, mean of three wells (time course, reading M59): 3.775
- Th-T fluorescence, mean of three wells (time course, reading M60): 3.734
- Th-T fluorescence, mean of three wells (time course, reading M61): 3.716
- Th-T fluorescence, mean of three wells (time course, reading M62): 3.783
- Th-T fluorescence, mean of three wells (time course, reading M63): 3.7203
- Th-T fluorescence, mean of three wells (time course, reading M64): 3.6972
- Th-T fluorescence, mean of three wells (time course, reading M65): 3.735
- Th-T fluorescence, mean of three wells (time course, reading M66): 3.755
- Th-T fluorescence, mean of three wells (time course, reading M67): 3.725
- Th-T fluorescence, mean of three wells (time-course reading M97, Supplementary Fig. 47 source data): 3.595
- Th-T fluorescence, mean of three wells (time-course reading M98, Supplementary Fig. 47 source data): 3.647
- Th-T fluorescence, mean of three wells (time-course reading M99, Supplementary Fig. 47 source data): 3.679
- Th-T fluorescence, mean of three wells (time-course reading M100, Supplementary Fig. 47 source data): 3.653
- Th-T fluorescence, mean of three wells (time-course reading M101, Supplementary Fig. 47 source data): 3.662
- Th-T fluorescence, mean of three wells (time-course reading M102, Supplementary Fig. 47 source data): 3.581
- Th-T fluorescence, mean of three wells (time-course reading M103, Supplementary Fig. 47 source data): 3.611
- Th-T fluorescence, mean of three wells (time-course reading M104, Supplementary Fig. 47 source data): 3.626
- Th-T fluorescence, mean of three wells (time-course reading M105, Supplementary Fig. 47 source data): 3.605
- Th-T fluorescence, mean of three wells (time-course reading M106, Supplementary Fig. 47 source data): 3.616
- Th-T fluorescence, mean of three wells (time-course reading M107, Supplementary Fig. 47 source data): 3.656
- Th-T fluorescence, mean of three wells (time-course reading M108, Supplementary Fig. 47 source data): 3.6
- Th-T fluorescence, mean of three wells (time-course reading M109, Supplementary Fig. 47 source data): 3.632
- Th-T fluorescence, mean of three wells (time-course reading M110, Supplementary Fig. 47 source data): 3.606
- Th-T fluorescence, mean of three wells (time-course reading M111, Supplementary Fig. 47 source data): 3.628
- Th-T fluorescence, mean of three wells (time-course reading M112, Supplementary Fig. 47 source data): 3.629
- Th-T fluorescence, mean of three wells (time-course reading M113, Supplementary Fig. 47 source data): 3.58
- Th-T fluorescence, mean of three wells (time-course reading M114, Supplementary Fig. 47 source data): 3.62
- Th-T fluorescence, mean of three wells (time-course reading M115, Supplementary Fig. 47 source data): 3.596
- Th-T fluorescence, mean of three wells (time-course reading M116, Supplementary Fig. 47 source data): 3.5953
SMILES: C=C1CCC2C(C)(CC(=O)C=C(C)C)C(O)CCC2(C)C1Cc1c(OC)oc(C)c(C)c1=O (centres unmarked) [Compound 25]

Source: article PMC7156458, “Synthetic biology based construction of biological activity-related library of fungal decalin-containing diterpenoid pyrones” (Nature Communications, 2020)
